The Emax is the size of the effect at its maximum, as opposed to the concentration needed.

This experiment concerns the target human OX2R (Homo sapiens (Human), UniProt O43614). As to the kind of experiment: IPOne (IP-1) assay in CHO cells expressing human OX2R. The format is cell-based. To be noted: for Emax: CHO, read-out: Emax (%); for Emax / Emax (%): percentage of mean max effect of a reference compound at 1 uM (100% activity by comparison to Orexin A), human OX2R; for IC50: CHO cells expressing human OX2R, IP-One detection, 2 hours incubation, EC50 = inflection point of four parameter logistic fit, read-out: hOX2R_IP_IC50. In outline:
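CHO cells stably expressing human OX2R were stimulated with compound (10-point ½-log dilutions) for 2 h at 37 °C. IP-1 accumulation was read by HTRF (IP-One, 665/620 nm). EC50 from a four-parameter fit; % effect relative to 1 μM reference agonist control.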

Sequence of human OX2R (O43614 whole entry): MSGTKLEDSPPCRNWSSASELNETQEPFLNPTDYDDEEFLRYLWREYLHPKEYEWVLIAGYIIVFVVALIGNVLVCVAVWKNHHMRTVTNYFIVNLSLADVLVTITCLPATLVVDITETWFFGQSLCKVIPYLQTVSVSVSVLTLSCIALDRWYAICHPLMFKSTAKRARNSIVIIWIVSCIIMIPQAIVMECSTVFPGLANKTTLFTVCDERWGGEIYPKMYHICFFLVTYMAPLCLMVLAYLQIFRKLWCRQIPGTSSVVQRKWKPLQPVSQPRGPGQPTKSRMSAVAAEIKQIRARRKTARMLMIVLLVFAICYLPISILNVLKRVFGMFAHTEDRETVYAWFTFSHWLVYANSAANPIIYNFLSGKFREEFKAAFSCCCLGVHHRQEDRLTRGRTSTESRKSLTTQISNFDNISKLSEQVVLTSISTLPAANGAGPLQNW

Turning to `COC(=O)N1[C@H](C)C[C@H](NS(=O)(=O)CC(F)(F)F)[C@@H]1CO[C@H]1CC[C@@]2(c3ncc(F)cn3)C[C@H]2C1` [Example 32, methyl (2R,3S,5R)-2-((((1S,3S,6R)-6-(5-fluoropyrimidin-2-yl)bicyclo[4.1.0]heptan-3-yl)oxy)methyl)-5-methyl-3-((2,2,2-trifluoroethyl)sulfonamido)pyrrolidine-1-carboxylate], the Emax was 103%.

In the case of `COC(=O)N1[C@H](C)C[C@H](NS(=O)(=O)N(C)C)[C@@H]1COC1CCC2(c3cnccn3)CC2C1` (single isomer, unassigned) [Example 11], the Emax came out at 96.1%.

For `CC(C)OC(=O)N1[C@H](C)C[C@H](NS(=O)(=O)N(C)C)[C@@H]1CO[C@@H]1CC[C@]2(c3ncccn3)C[C@@H]2C1` [Example 170, isopropyl (2R,3S,5R)-3-((N,N-dimethylsulfamoyl)amino)-5-methyl-2-((((1R,3R,6S)-6-(pyrimidin-2-yl)bicyclo[4.1.0]heptan-3-yl)oxy)methyl)pyrrolidine-1-carboxylate], the Emax was found to be 99.5%.

Take `C[C@@H]1C[C@H](NS(C)(=O)=O)[C@H](CO[C@H]2CC[C@@]3(c4ncc(F)cn4)C[C@H]3C2)N1C(=O)OC[C@H]1[C@H](C)C1(F)F` [Example 55, ((1R,3S)-2,2-difluoro-3-methylcyclopropyl)methyl (2R,3S,5R)-2-((((1S,3S,6R)-6-(5-fluoropyrimidin-2-yl)bicyclo[4.1.0]heptan-3-yl)oxy)methyl)-5-methyl-3-(methylsulfonamido)pyrrolidine-1-carboxylate]: the Emax was found to be 105%.

For the compound `COC(=O)N1[C@H](C)C[C@H](NS(=O)(=O)N(C)C)[C@@H]1COC1CCC2(c3ncccn3)CC2C1` (single isomer, unassigned) [Example 186], the IC50 amounted to 142 nM and the Emax worked out at 99.5%.

For `COC(=O)N1[C@H](C(F)F)C[C@H](NS(=O)(=O)C(C)C)[C@@H]1COC1CCC2(c3ncc(F)cn3)CC2C1` (stereo partly drawn) [Example 120, methyl (2R,3S,5S)-5-(difluoromethyl)-2-(((6-(5-fluoropyrimidin-2-yl)bicyclo[4.1.0]heptan-3-yl)oxy)methyl)-3-((1-methylethyl)sulfonamido)pyrrolidine-1-carboxylate], the Emax came to 102%.

For `COC(=O)N1[C@H](C)C[C@H](NS(C)(=O)=O)[C@@H]1COC1CCC2(c3ncc(OC(F)F)c(C)n3)CC2C1` (stereo partly drawn) [Example 75, methyl (2R,3S,5R)-2-(((6-(5-(difluoromethoxy)-4-methylpyrimidin-2-yl)bicyclo[4.1.0]heptan-3-yl)oxy)methyl)-5-methyl-3-(methylsulfonamido)pyrrolidine-1-carboxylate], the Emax turned out to be 89.5%.

With `CCS(=O)(=O)N[C@H]1C[C@@H](C)N(C(=O)OC)[C@H]1CO[C@H]1CC[C@@]2(c3ncc(F)cn3)C[C@H]2C1` [Example 36, methyl (2R,3S,5R)-3-(ethylsulfonamido)-2-((((1S,3S,6R)-6-(5-fluoropyrimidin-2-yl)bicyclo[4.1.0]heptan-3-yl)oxy)methyl)-5-methylpyrrolidine-1-carboxylate], the maximal effect (Emax) was determined as 102%.

`COC(=O)N1[C@H](C)C[C@H](NS(C)(=O)=O)[C@@H]1COC1CCC2(c3ncc(F)cn3)CC2C1` (stereo partly drawn) [Example 135, methyl (2R,3S,5R)-2-(((6-(5-fluoropyrimidin-2-yl)bicyclo[4.1.0]heptan-3-yl)oxy)methyl)-5-methyl-3-(methylsulfonamido)pyrrolidine-1-carboxylate]: the Emax was 99.5%.

`COC(=O)N1[C@H](C)C[C@H](NS(C)(=O)=O)[C@@H]1COC1CCC2(c3ncc(Cl)c(C(F)(F)F)n3)CC2C1` (stereo partly drawn) [Example 72, methyl (2R,3S,5R)-2-(((6-(5-chloro-4-(trifluoromethyl)pyrimidin-2-yl)bicyclo[4.1.0]heptan-3-yl)oxy)methyl)-5-methyl-3-(methylsulfonamido)pyrrolidine-1-carboxylate]: the Emax is 91.7%.

On to `COC(=O)N1[C@H](C(F)F)C[C@H](NS(C)(=O)=O)[C@@H]1CO[C@H]1CC[C@@]2(c3ncc(F)cn3)C[C@H]2C1` (single isomer, unassigned) [Example 127], for which the IC50 amounted to 1.7 nM and the Emax was found to be 101%.

For the compound `COC(=O)N1[C@H](C)C[C@H](NS(=O)(=O)CC(C)C)[C@@H]1CO[C@H]1CC[C@@]2(c3ncc(F)cn3)C[C@H]2C1` [Example 35, methyl (2R,3S,5R)-2-((((1S,3S,6R)-6-(5-fluoropyrimidin-2-yl)bicyclo[4.1.0]heptan-3-yl)oxy)methyl)-5-methyl-3-((2-methylpropyl)sulfonamido)pyrrolidine-1-carboxylate], the Emax was determined as 101%.

As for `COC(=O)N1CC[C@H](NS(C)(=O)=O)[C@@H]1COC1CCC2(c3ncccn3)CC2C1` (stereo partly drawn) [Example 21, methyl (2R,3S)-3-(methylsulfonamido)-2-(((6-(pyrimidin-2-yl)bicyclo[4.1.0]heptan-3-yl)oxy)methyl)pyrrolidine-1-carboxylate], the “Emax (%)” value was 94.6%.

For `COC(=O)N1CC[C@H](NS(C)(=O)=O)[C@@H]1CO[C@H]1CC[C@@]2(c3ncccn3)C[C@H]2C1` (single isomer, unassigned) [Example 24], the IC50 stood at 238 nM and the “Emax (%)” value is recorded as 99.8%.

Consider `CC(C)OC(=O)N1[C@H](C)C[C@H](NS(=O)(=O)CF)[C@@H]1COC1CCC2(c3ncc(Br)cn3)CC2C1` (single isomer, unassigned) [Example 105], for which the IC50 stood at 233 nM and the Emax turned out to be 91.7%.

As for `CC(OC(=O)N1[C@H](C)C[C@H](NS(C)(=O)=O)[C@@H]1CO[C@H]1CC[C@@]2(c3ncc(F)cn3)C[C@H]2C1)C(F)F` (stereo partly drawn) [Example 63, 1,1-Difluoropropan-2-yl (2R,3S,5R)-2-((((1S,3S,6R)-6-(5-fluoropyrimidin-2-yl)bicyclo[4.1.0]heptan-3-yl)oxy)methyl)-5-methyl-3-(methylsulfonamido)pyrrolidine-1-carboxylate], the Emax was found to be 104%.

Consider `COC(=O)N1[C@H](C)C[C@H](NS(=O)(=O)N(C)C)[C@@H]1COC1CCC2(c3cnccn3)CC2C1` (stereo partly drawn) [Example 10, methyl (2R,3S,5R)-3-((N,N-dimethylsulfamoyl)amino)-5-methyl-2-(((6-(pyrazin-2-yl)bicyclo[4.1.0]heptan-3-yl)oxy)methyl)pyrrolidine-1-carboxylate], for which the Emax amounted to 85.6%.

As for `CC(C)OC(=O)N1[C@H](C)C[C@H](NS(C)(=O)=O)[C@@H]1CO[C@@H]1CC[C@]2(c3ncc(F)cn3)C[C@@H]2C1` [Example 29, isopropyl (2R,3S,5R)-2-((((1R,3R,6S)-6-(5-fluoropyrimidin-2-yl)bicyclo[4.1.0]heptan-3-yl)oxy)methyl)-5-methyl-3-(methylsulfonamido)pyrrolidine-1-carboxylate], the Emax was found to be 102%.

With `COC(=O)N1[C@H](C)C[C@H](NS(=O)(=O)C(F)F)[C@@H]1CO[C@H]1CC[C@@]2(c3ncccn3)C[C@H]2C1` [Example 68, methyl (2R,3S,5R)-3-((difluoromethyl)sulfonamido)-5-methyl-2-((((1S,3S,6R)-6-(pyrimidin-2-yl)bicyclo[4.1.0]heptan-3-yl)oxy)methyl)pyrrolidine-1-carboxylate], the Emax came to 99.7%.

The values are drawn from patent publication US11680060B2, “Bicycloheptane pyrrolidine orexin receptor agonists” (Merck Sharp & Dohme LLC, priority 2020, dated 2023).
